Several values for one entry are separate records, joined by “and”; a condition that tells them apart may be missing. Equal entries are not always repeated.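 Dose response: 5 concentrations. Exposure: 48 h. Format: 96-well plates. Endpoint: linear interpolation; highest concentration if not reached. GI50 is the concentration that inhibits growth by half. Definition used: TGI = concentration required for complete inhibition of growth.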
Experiments:
Experiment in all cases: growth of human tumour cells (NCI), 48 h
COLO 205 colon = test system: COLO 205 colon
HS 578T breast = test system: HS 578T breast
MALME-3M melanoma = test system: MALME-3M melanoma
MCF7 breast = test system: MCF7 breast
NCI-H460 lung = test system: NCI-H460 lung
NCI/ADR-RES ovarian = test system: NCI/ADR-RES ovarian
RPMI-8226 leukemia = test system: RPMI-8226 leukemia
SF-295 CNS = test system: SF-295 CNS
SK-MEL-5 melanoma = test system: SK-MEL-5 melanoma
SN12C renal = test system: SN12C renal

COc1cc(/C(Cl)=C/C=C/C(=O)c2c(C)[n+]([O-])c3ccc(Cl)cc3[n+]2[O-])cc(OC)c1OC showed a GI50 (COLO 205 colon) of 10 µM, a TGI (COLO 205 colon) of 28.2 µM and a GI50 (HS 578T breast) of 6.47 µM. It also gave a TGI (HS 578T breast) of 35.7 µM, a GI50 (MALME-3M melanoma) of 6.35 µM and a TGI (MALME-3M melanoma) of 18.5 µM. The GI50 (MCF7 breast) was 1.76 µM, the TGI (MCF7 breast) was greater than 50 µM and the GI50 (NCI-H460 lung) was 11.5 µM. For the same molecule, the TGI (NCI-H460 lung) was greater than 50 µM, the GI50 (NCI/ADR-RES ovarian) was 1.97 µM and the TGI (NCI/ADR-RES ovarian) was greater than 50 µM. For the same molecule, the GI50 (RPMI-8226 leukemia) was 2.18 µM, the TGI (RPMI-8226 leukemia) was greater than 50 µM and the GI50 (SF-295 CNS) was 2.77 µM. The TGI (SF-295 CNS) was 20.5 µM, the GI50 (SK-MEL-5 melanoma) was 9.44 µM and the TGI (SK-MEL-5 melanoma) was greater than 50 µM. It also gave a GI50 (SN12C renal) of 9.1 µM and a TGI (SN12C renal) greater than 50 µM.

In the case of CN1CCN(c2ccc(C(=O)Nc3n[nH]c4ccc(Cc5cc(F)cc(F)c5)cc34)c(NC3CCOCC3)c2)CC1, the GI50 (COLO 205 colon) is reported as 1.48 µM, the TGI (COLO 205 colon) is reported as 3.1 µM and the GI50 (HS 578T breast) is reported as 1.23 µM and 1.21 µM. For the same molecule, the TGI (HS 578T breast) was 4.37 µM and 3.22 µM, the GI50 (MALME-3M melanoma) was 1.5 µM and the TGI (MALME-3M melanoma) was 3.01 µM. The GI50 (MCF7 breast) was 0.983 µM and 0.485 µM, the TGI (MCF7 breast) was 5.73 µM and 1.93 µM and the GI50 (NCI-H460 lung) was 2.37 µM and 1.57 µM. The TGI (NCI-H460 lung) was 9.27 µM and 3.09 µM, the GI50 (NCI/ADR-RES ovarian) was 4.81 µM and 2.02 µM and the TGI (NCI/ADR-RES ovarian) was > 10 µM and 4.54 µM. The GI50 (RPMI-8226 leukemia) was 2.3 µM and 1.86 µM, the TGI (RPMI-8226 leukemia) was 7.02 µM and 4.39 µM and the GI50 (SF-295 CNS) was 3.94 µM and 1.45 µM. For the same molecule, the TGI (SF-295 CNS) was > 10 µM and 3.11 µM, the GI50 (SK-MEL-5 melanoma) was 1.62 µM and 1.56 µM and the TGI (SK-MEL-5 melanoma) was 3.01 µM and 2.98 µM. For the same molecule, the GI50 (SN12C renal) was 2.6 µM and 1.34 µM and the TGI (SN12C renal) was > 10 µM and 2.93 µM.

Molecule Cc1c2cnccc2c(C)c2c1c1cc(C3OCCCO3)ccc1n2C has a GI50 (COLO 205 colon) of 0.357 µM, a TGI (COLO 205 colon) of 1.75 µM and a GI50 (HS 578T breast) of 0.416 µM. It also gave a TGI (HS 578T breast) of 2.83 µM, a GI50 (MALME-3M melanoma) of 0.29 µM and a TGI (MALME-3M melanoma) of 1.12 µM. The GI50 (MCF7 breast) was 0.255 µM, the TGI (MCF7 breast) was 1.35 µM and the GI50 (NCI-H460 lung) was 0.293 µM. For the same molecule, the TGI (NCI-H460 lung) was 1.15 µM, the GI50 (NCI/ADR-RES ovarian) was 0.157 µM and the TGI (NCI/ADR-RES ovarian) was 1.83 µM. The GI50 (RPMI-8226 leukemia) was 0.282 µM, the TGI (RPMI-8226 leukemia) was 1.28 µM and the GI50 (SF-295 CNS) was 0.348 µM. For the same molecule, the TGI (SF-295 CNS) was 1.9 µM, the GI50 (SK-MEL-5 melanoma) was 0.379 µM and the TGI (SK-MEL-5 melanoma) was 1.44 µM. For the same molecule, the GI50 (SN12C renal) was 0.192 µM and the TGI (SN12C renal) was 1.3 µM.

For O=C(c1ccccc1)c1c(NCC(O)CN2CCCC2)n(Cc2ccccc2)c(=O)n(Cc2ccccc2)c1=O (stereo unspecified), the GI50 (COLO 205 colon) was 16.2 µM, the TGI (COLO 205 colon) was 31.2 µM and the GI50 (HS 578T breast) was 16.2 µM. The TGI (HS 578T breast) was 37.8 µM, the GI50 (MCF7 breast) was 42.5 µM and the TGI (MCF7 breast) was greater than 100 µM. For the same molecule, the GI50 (NCI-H460 lung) was 19.8 µM, the TGI (NCI-H460 lung) was 38.9 µM and the GI50 (NCI/ADR-RES ovarian) was 19.5 µM. It also gave a TGI (NCI/ADR-RES ovarian) of 55.3 µM, a GI50 (RPMI-8226 leukemia) of 19.3 µM and a TGI (RPMI-8226 leukemia) of 48.4 µM. For the same molecule, the GI50 (SF-295 CNS) was 18 µM, the TGI (SF-295 CNS) was 33.7 µM and the GI50 (SK-MEL-5 melanoma) was 12.5 µM. It also gave a TGI (SK-MEL-5 melanoma) of 25 µM, a GI50 (SN12C renal) of 19.3 µM and a TGI (SN12C renal) of 39.1 µM.

Cc1[nH]ncc1-c1cc2nc(C3CC4CCN3CC4)[nH]c(=O)c2s1 (stereo unspecified) gave a GI50 (HS 578T breast) of 3.87 µM, a TGI (HS 578T breast) greater than 100 µM and a GI50 (MALME-3M melanoma) of 6.02 µM. For the same molecule, the TGI (MALME-3M melanoma) was 74 µM, the GI50 (MCF7 breast) was 2.58 µM and the TGI (MCF7 breast) was greater than 100 µM. The GI50 (NCI-H460 lung) was 2.44 µM, the TGI (NCI-H460 lung) was greater than 100 µM and the GI50 (NCI/ADR-RES ovarian) was 11.8 µM. For the same molecule, the TGI (NCI/ADR-RES ovarian) was greater than 100 µM, the GI50 (RPMI-8226 leukemia) was 18.2 µM and the TGI (RPMI-8226 leukemia) was greater than 100 µM. For the same molecule, the GI50 (SF-295 CNS) was 2.88 µM, the TGI (SF-295 CNS) was greater than 100 µM and the GI50 (SK-MEL-5 melanoma) was 2.77 µM. For the same molecule, the TGI (SK-MEL-5 melanoma) was 52.9 µM, the GI50 (SN12C renal) was 3.31 µM and the TGI (SN12C renal) was greater than 100 µM.

Source: PubChem BioAssay (NCI)
